Measurements from patent US20250304623A1, “PEPTIDES FOR INTRACELLULAR DELIVERY” (UNIVERSIDADE DE SANTIAGO DE COMPOSTELA, priority 2022, published 2025).
*: point of attachment. NHNH2 = NN*

Legend:
Format in all cases: cell-based
[1] = tested on: HepG2 cells expressing EGFP; test: EGFP-targeting siRNA delivery (GFP silencing vs siMOCK), HepG2
Method: To generate an EGFP expressing HeLa cell line, HeLa cells were transfected with EGFP pDNA (pEGFP-C1, Clontech) and stable transfectants were selected with 400 μg/mL of G-418 (Millipore). Green clones were selected by epifluorescence microscopy and tested for EGFP expression stability through several passages. […] All other EGFP-expressing cell lines were obtained in a similar way from parent non-EGFP-expressing cell lines.
Cells expressing EGFP were seeded in a 96 well plate the day before the experiment at a concentration of 50,000 cell/mL (100 μL/w) in DMEM+10% FBS+1% Gln-Abt. For robotic library screening, the delivery of an EGFP-targeting siRNA (EGFP: enhanced green fluorescent protein, Ambion® Silencer® GFP Positive Control siRNA (siGFP) (AM4626)) in six different cell lines expressing EGFP was performed. […] The mixture was shaken for 30 min at room temperature (rt) before the addition to the cells. The cell medium was aspirated, and cells were washed twice with PBS. Finally, 50 μL of the solution of siRNA/amphiphile complexes were added to the cells and incubated for 4 h. After transfection, the medium was replaced by 100 μL of fresh DMEM supplemented with 10% FBS. The fluorescence knockdown was quantified after 72 h in a plate reader, by comparison with cells transfected with a non-targeting siRNA control (siMOCK, Silencer™ Negative Control No. 1 siRNA (siMOCK) (AM4611)). EGFP knockdown was compared with Lipofectamine® RNAiMAX silencing efficiency (30-60% depending on cell line, defined with a numeric value in the below tables). All experiments were done in triplicate.
(§1) Tables 1-7: RLuc (pDNA) or EGFP (mRNA) expression levels were normalized to Lipofectamine reagents (value=1) and expressed as fold-times signal increase. In the case of siRNA, the siRNA treated cells fluorescence was compared with siMOCK control fluorescence, while Cas9-RNP mediated knockout was measured against the fluorescence of untreated cells. In both siRNA and Cas9-RNP, values are expressed as % fluorescence reduction. Amphiphile concentration was 5 μM in all cases. All experiments were performed in triplicate.
Tables 20-25 show the mean (triplicates) percentage of GFP-silencing, accounted by fluorescence intensity decrease relative to a non-targeting siRNA (siMOCK) control, measured after the transfection of siRNA by different amphiphiles at different concentrations in a variety of cell lines. Background values, accounted by untreated control cells, were subtracted for processing.

HepG2 cells [2] = test: EGFP mRNA delivery, robotic library screening, HepG2; conditions: HepG2 cells
Method: Cells were seeded in a 96 well plate the day before the experiment at a concentration of 50,000 cell/mL (100 μL/w) in DMEM+10% FBS+1% Gln-Abt. For robotic library screening, the delivery of EGFP-mRNA (from TriLink, fully substituted with 5-methoxyuridine, capped and polyadenylated; TriLink, CleanCap® EGFP mRNA (5moU), ref. L-7201) in six different cell lines was performed. Amphiphilic molecule stock solutions were prepared in DMSO as described above and diluted in DMEM to afford a range of concentrations. The solutions of EGFP-mRNA/amphiphilic molecule complexes were freshly prepared prior to the transfection experiments. 35 μL of the corresponding amphiphile were added to 10 μL of a solution of EGFP-mRNA at 10 ng/μL in DMEM. The mixture was shaken for 30 min at room temperature before the addition to the cells. The cell medium was aspirated, and cells were washed with PBS twice. […] After the incubation, the medium was replaced by 100 μL of fresh DMEM supplemented with 10% FBS. The total EGFP fluorescence was quantified after 72 h in a well plate reader. Amphiphile transfection efficiency was compared and normalized to Lipofectamine® MessengerMax efficiency (value of 1 in Tables 1-5 and 7; double underlined numbers). All experiments were done in triplicate.
as §1
Tables 14-19 show the mean (triplicates) fluorescence intensity measured after the transfection of EGFP mRNA by different amphiphiles at different concentrations in a variety of cell lines. Background fluorescence values, accounted by untreated control cells, were subtracted for processing.

HepG2 cells [3] = test: RLuc pDNA delivery, robotic library screening, HepG2
Method: Cells were seeded in a 96 well plate the day before the experiment at a concentration of 60,000 cell/mL (100 μL/w) in DMEM+10% FBS+1% Gln-Abt. For robotic library screening, the delivery of pDNA encoding for the expression of Renilla luciferase gene (RLuc, pRL-CMV (Promega, #E2261)) in six different cell lines was performed. Amphihilic molecule stock solutions in DMSO were diluted with DMEM and freshly mixed with pDNA stock solutions in DMEM prior to transfection experiments, to afford several complexes at different amphiphile concentration (2-10 μM) while maintaining a constant final pDNA concentration of 2 ng/μL. The mixture was shaken for 30 min at room temperature before the addition to the cells. The cell medium was aspirated, and cells were washed twice with PBS. Finally, 50 μL of the complex's solution were added to the cells and incubated for 4 h. After the incubation, the medium was replaced by 100 μL of fresh DMEM supplemented with 10% FBS. 72 hours after transfection the DMEM was removed, cells were washed once with HBSS and 90 μL of HBSS were added to each well. Cells were incubated at 37° C. for 30 minutes. Then basal luminescence levels were read in a plate reader. Immediately, 10 μL of coelenterazine h in HBSS were added to each well (5 μM final concentration) and cells were incubated at 37° C. for 10 minutes. Finally, the total luminescence measurement of the plates was performed. Amphiphile transfection efficiency was compared and normalized to Lipofectamine® 2000 efficiency (value of 1 in Tables 1-5 and 7; bold numbers). All experiments were done in triplicate.
as §1
Tables 8-13 show the mean (triplicates) luminescent intensity (RLU) measured after the transfection of RLuc pDNA by different amphiphiles at different concentrations in a variety of cell lines. Background luminescence values, accounted by untransfected control cells, were subtracted for processing.

Row | Substance | percentage of GFP-silencing relative to siMOCK ([1]; Dodecanal, 10 μM) [%] | percentage of GFP-silencing relative to siMOCK ([1]; Dodecanal, 15 μM) [%] | percentage of GFP-silencing relative to siMOCK ([1]; Myristoleyl, 5 μM) [%] | percentage of GFP-silencing relative to siMOCK ([1]; Myristoleyl, 10 μM) [%] | percentage of GFP-silencing relative to siMOCK ([1]; Myristoleyl, 15 μM) [%] | percentage of GFP-silencing relative to siMOCK ([1]; Oleyl, 10 μM) [%] | percentage of GFP-silencing relative to siMOCK ([1]; Palmitoleyl, 5 μM) [%] | percentage of GFP-silencing relative to siMOCK ([1]; Petroselinyl, 10 μM) [%] | mean fluorescence intensity after transfection of EGFP mRNA (HepG2 cells [2]; Dodecanal, 5 μM) | mean fluorescence intensity after transfection of EGFP mRNA (HepG2 cells [2]; Dodecanal, 10 μM) | mean fluorescence intensity after transfection of EGFP mRNA (HepG2 cells [2]; Dodecanal, 15 μM) | mean fluorescence intensity after transfection of EGFP mRNA (HepG2 cells [2]; Myristoleyl, 5 μM) | mean fluorescence intensity after transfection of EGFP mRNA (HepG2 cells [2]; Palmitoleyl, 10 μM) | mean fluorescence intensity after transfection of EGFP mRNA (HepG2 cells [2]; Palmitoleyl, 15 μM) | mean luminescent intensity (RLuc pDNA) (HepG2 cells [3]; Dodecanal, 10 μM) [RLU] | mean luminescent intensity (RLuc pDNA) (HepG2 cells [3]; Dodecanal, 15 μM) [RLU] | mean luminescent intensity (RLuc pDNA) (HepG2 cells [3]; Myristoleyl, 5 μM) [RLU] | mean luminescent intensity (RLuc pDNA) (HepG2 cells [3]; Myristoleyl, 10 μM) [RLU] | mean luminescent intensity (RLuc pDNA) (HepG2 cells [3]; Myristoleyl, 15 μM) [RLU] | mean fluorescence intensity after transfection of EGFP mRNA (HepG2 cells [2]; Myristoleyl, 15 μM) | further results
1 | Ac-RK*LRK*K*L-NH2 (Ac-RK(NHNH2)LRK(NHNH2)K(NHNH2)L-NH2; not fully specified; printed as Ac-RK*LRK*K*L-NH2; also: K*2,K*5,K*6: native or modified lysine (ε-amide to a linker)) [Peptide 7.3] | 17 | 10 | 6 | 5 | 3 | 9 | 9 | 19 | 1786 | 1477 | 952 | 1046 | 3553 | 766 | 4529 | 14804 | 109155 | 294365 | 241385 | – | percentage of GFP-silencing relative to siMOCK ([1]; Oleyl, 5 μM): 7%; percentage of GFP-silencing relative to siMOCK ([1]; Petroselinyl, 5 μM): 18%; mean fluorescence intensity after transfection of EGFP mRNA (HepG2 cells [2]; Oleyl, 5 μM): 893; mean fluorescence intensity after transfection of EGFP mRNA (HepG2 cells [2]; Palmitoleyl, 5 μM): 3286; mean fluorescence intensity after transfection of EGFP mRNA (HepG2 cells [2]; Petroselinyl, 5 μM): 4095; mean fluorescence intensity after transfection of EGFP mRNA (HepG2 cells [2]; Petroselinyl, 10 μM): 188; mean fluorescence intensity after transfection of EGFP mRNA (HepG2 cells [2]; Petroselinyl, 15 μM): 821; mean luminescent intensity (RLuc pDNA) (HepG2 cells [3]; Palmitoleyl, 5 μM): 107745 RLU; mean luminescent intensity (RLuc pDNA) (HepG2 cells [3]; Palmitoleyl, 10 μM): 84207 RLU; mean luminescent intensity (RLuc pDNA) (HepG2 cells [3]; Palmitoleyl, 15 μM): 46358 RLU; mean luminescent intensity (RLuc pDNA) (HepG2 cells [3]; Petroselinyl, 5 μM): 228306 RLU; mean luminescent intensity (RLuc pDNA) (HepG2 cells [3]; Petroselinyl, 10 μM): 150739 RLU; mean luminescent intensity (RLuc pDNA) (HepG2 cells [3]; Petroselinyl, 15 μM): 51938 RLU
2 | Ac-RK*LRRK*L-NH2 (Ac-RK(NHNH2)LRRK(NHNH2)L-NH2; not fully specified; printed as Ac-RK*LRRK*L-NH2; also: K*2,K*6: native or modified lysine (ε-amide to a linker)) [Peptide 7.2] | 14 | 7 | −12 | −1 | −32 | – | – | – | 75 | −468 | 268 | 678 | – | – | 4114 | 1202 | 11364 | 23772 | 25742 | −60 | mean fluorescence intensity after transfection of EGFP mRNA (HepG2 cells [2]; Myristoleyl, 10 μM): 752
3 | Ac-RK*LRRK*LRK*-NH2 (Ac-RK(NHNH2)LRRK(NHNH2)LRK(NHNH2)-NH2; not fully specified; printed as Ac-RK*LRRK*LRK*-NH2; also: K*2,K*6,K*9: native or modified lysine (ε-amide to a linker)) [Peptide 9.3] | – | – | −11 | – | 6 | −9 | −2 | – | – | – | – | – | 1226 | 629 | 25099 | 21420 | 57891 | 244850 | 286208 | 867 | percentage of GFP-silencing relative to siMOCK ([1]; Palmitoleyl, 15 μM): −2%; percentage of GFP-silencing relative to siMOCK ([1]; Petroselinyl, 15 μM): −3%; mean fluorescence intensity after transfection of EGFP mRNA (HepG2 cells [2]; Oleyl, 5 μM): 382; mean fluorescence intensity after transfection of EGFP mRNA (HepG2 cells [2]; Oleyl, 10 μM): 802; mean fluorescence intensity after transfection of EGFP mRNA (HepG2 cells [2]; Oleyl, 15 μM): 231; mean luminescent intensity (RLuc pDNA) (HepG2 cells [3]; Petroselinyl, 15 μM): 50057 RLU
4 | Ac-RRHK*RLK*RRLK*RL-NH2 (Ac-RRHK(NHNH2)RLK(NHNH2)RRLK(NHNH2)RL-NH2; not fully specified; printed as Ac-RRHK*RLK*RRLK*RL-NH2; also: K*4,K*7,K*11: native or modified lysine (ε-amide to a linker)) [13(Leu-His)] | – | 27 | – | −3 | – | – | – | 25 | – | – | – | 2950 | 574 | −350 | 12080 | 73505 | – | 61828 | 35356 | 308 | percentage of GFP-silencing relative to siMOCK ([1]; Palmitoleyl, 10 μM): 12%; percentage of GFP-silencing relative to siMOCK ([1]; Palmitoleyl, 15 μM): 25%; percentage of GFP-silencing relative to siMOCK ([1]; Petroselinyl, 15 μM): 6%; mean fluorescence intensity after transfection of EGFP mRNA (HepG2 cells [2]; Palmitoleyl, 5 μM): 1636; mean luminescent intensity (RLuc pDNA) (HepG2 cells [3]; Oleyl, 5 μM): 116466 RLU; mean luminescent intensity (RLuc pDNA) (HepG2 cells [3]; Palmitoleyl, 10 μM): 71476 RLU
